Reference: patent US9066912B2, “Drug-enhanced adhesion prevention” (Ethicon, Inc., priority 2003, dated 2015)
Several values for one entry are separate records, joined by “and”; a condition that tells them apart may be missing. Identical values can stand only once. Entries after “also recorded” stand apart in the source; their conditions may differ.

How the values were obtained:
[1] = tested on: adhesion formation after peritoneal surgery (sidewall injury); test: Rabbit peritoneal sidewall adhesion model; assay type: in vivo; parameters: key to Adhesion Tenacity: 0: No adhesions; 1: mild, easily dissectible adhesions; 2: moderate adhesions; non-dissectible, does not tear organ; 3: dense adhesions; non-dissectible, tears when removed; settings: for mean adhesion area percentage: placebo control 100±0; for Adhesion Area Percentage / Adhesion Tenacity: individual animals; for efficacy in reducing post-operative adhesions: summary of the examples
Experimental: Multiple studies to confirm the efficacy of Tranilast in the reduction or inhibition of adhesion formation after peritoneal surgery were performed using a sidewall adhesion model.
(§1) In the peritoneal sidewall model, rabbits were pre-anesthetized with 1.2 mg/kg acetylpromazine and anesthetized with a mixture of 55 mg/kg ketamine hydrochloride and 5 mg/kg xylazine intramuscularly. Following preparation for sterile surgery, a midline laparotomy was performed. A 3 cm×5 cm area of peritoneum and transversus abdominis muscle was removed on the right lateral abdominal wall. The cecum was exteriorized and digital pressure was exerted to create subserosal hemorrhages (trauma and loss of blood flow) over all cecal surfaces. The cecum was then returned to its normal anatomic position. Tranilast contained in a delivery vehicle as described below was placed in an Alzet® miniosmotic pump (Alza Corporation, Palo Alto, Calif.) to allow continuous release of the molecule through the postsurgical interval. The Alzet miniosmotic pump was placed in the subcutaneous space and a delivery tube connected the pump with the site of injury at the sidewall. Only the delivery vehicle was placed in the pump of control rabbits. The abdominal wall and skin were closed in a standardized manner.
After 21 days, the rabbits were sacrificed and the percentage of the area of the sidewall injury that was involved in adhesions was determined. In addition, the tenacity of the adhesion formed was scored using a system as follows:
With the sidewall model, an initial score to represent the overall extent of adhesions is given (0 to 3).
The percentage of a surface of the sidewall involved in adhesions to various organs are given in the tables below to quantify the overall adhesion score. A reduction in the area and the tenacity of the adhesions would be considered beneficial and efficacious.
The efficacy of Tranilast in inhibiting adhesion formation was evaluated using a single pump, filled with one of three dosage levels of mg of Tranilast per ml of delivery vehicle (0.625 mg/ml, 6.25 mg/ml or 62.5 mg/ml), or placebo control (70% Polyethylene glycol 400, 20% Tween 80, 10% N,N-dimethylacetamide (DMAC)). The drug was placed in an Alzet miniosmotic pump and delivered over 7 days at a rate of 10 microliter/hr. The animals were sacrificed after 21 days.
Following the procedure described in Example 1, Tranilast, at one of three dosage levels (0.625, 6.25 or 62.5 mg Tranilast/ml vehicle), and a placebo control (70% Polyethylene glycol 400, 20% Tween 80, 10% N,N-dimethylacetamide (DMAC)) was delivered over 7 days at a rate of 10 microliter/hr.
After 7 days, animals received anesthesia and a small incision was made in the skin after preparation for aseptic surgery. The pump was then replaced with a new pump and drug or placebo was delivered over a second period of 7 days at a rate of 10 microliter/hr.
After 7 more days, some of the animals received anesthesia and a second small incision was made in the skin after preparation for aseptic surgery. Again, the pump was replaced with another new pump and drug or placebo was delivered over a third period of 7 days at a rate of 10 microliter/hr.
All animals were sacrificed after 21 days.
Groups of animals received either oral dosing, or local delivery of Tranilast, or placebo control. In the animals that received local delivery, a single pump, filled with placebo (70% Polyethylene glycol 400, 20% Tween 80, 10% N,N-dimethylacetamide (DMAC)), or Tranilast (6.25 mg/ml), at 10 microliter/hour over 7 days starting with the day of surgery, was placed in the subcutaneous space. Certain animals received oral dosing (approximately 60 mg/kg). Oral dosing was either pre-operatively (once a day for the 5 days prior to surgery, with the last dose given 2 hours prior to surgery) or, in one group, pre- and post-operatively (from day 2 through day 21 post-surgery). For further clarification, the treatment groups are shown below.

[2] = Necropsy observations in the rabbit sidewall adhesion studies; assay type: in vivo; parameters: key to mild inflammation with granulomas (mark at adhesion tenacity): *: did have mild inflammation with the presence of granulomas; settings: for mild inflammation with granulomas (mark at adhesion tenacity): individual animals, also seen in vehicle treated animals
Experimental: as §1
The animals whose adhesion tenacities are marked by (*) did have mild inflammation with the presence of granulomas. The variability in the results may be due to a localized inflammation in […]. As the response was present in the vehicle treated animals, the inflammatory response may be due to prolonged administration of this vehicle. Therefore, the efficacy results might have been underestimated in light of the possible presence of a prolonged inflammatory response.

[3] = tested on: TGF-β secretion, collagen synthesis, or cellular proliferation; settings: any of the cellular assays tested to date, e.g. TGF-β secretion; cited from earlier work
[4] = Example 1, 0.625 mg/ml local via pump, 10 microliter/hr over 7 days, sacrifice after 21 days
[5] = Example 1, 6.25 mg/ml local via pump, 10 microliter/hr over 7 days, sacrifice after 21 days
[6] = Example 1, 62.5 mg/ml local via pump, 10 microliter/hr over 7 days, sacrifice after 21 days
[7] = Example 3, oral 60 mg/kg 5 days pre-operatively and 6.25 mg/ml topically (pump, 7 days), 60 mg/kg
[8] = Example 3, oral 60 mg/kg, 5 days pre-operatively and 21 days post-operatively, no pump
[9] = Example 2, 2 and 3 week local dosing
[10] = Example 3, oral and/or local dosing

## COc1ccc(C=CC(=O)Nc2ccccc2C(=O)O)cc1OC [Tranilast, N-(3,4-dimethoxycinnamoyl) anthranilic acid]
[1]; Example 1, 0.625 mg/ml local, 1 week dosing, p=0.078
  mean adhesion area percentage: 82.9±8.1%
[1]; Example 1, 6.25 mg/ml local, 1 week dosing, p<0.001
  mean adhesion area percentage: 67.1±7.1%
[1]; Example 1, 62.5 mg/ml local, 1 week dosing, p=0.065
  mean adhesion area percentage: 78.6±9.6%
[1]; Example 1, 1 week local dosing, all doses
  tenacity of the adhesions formed (analysis of variance on the ranks): significant reductions in the tenacity of the adhesions
[1]; Example 1, 1 week local dosing, all doses (0.625, 6.25, 62.5 mg/ml)
  area of adhesion formation relative to the control: reduced the area of adhesion formation
[1]; [4]
  Adhesion Area Percentage: 100% (4×) and 60% (3×)
  Adhesion Tenacity: 2 (3×) and 1 (3×) and 3
[1]; [5]
  Adhesion Area Percentage: 70% (2×) and 100% and 80% and 50% (3×)
  Adhesion Tenacity: 1 (5×) and 2 (2×)
[1]; [6]
  Adhesion Area Percentage: 100% (3×) and 70% (2×) and 30% and 80%
  Adhesion Tenacity: 2 (3×) and 1 (3×) and 3
[1]; Example 2, 0.625 mg/ml local, 2 weeks
  mean adhesion area percentage: 75.1±14.5%
[1]; Example 2, 0.625 mg/ml local, 3 weeks
  mean adhesion area percentage: 48.6±8.8%
[1]; Example 2, 6.25 mg/ml local, 2 weeks
  mean adhesion area percentage: 78.8±12.0%
[1]; Example 2, 6.25 mg/ml local, 3 weeks
  mean adhesion area percentage: 77.1±12.1%
[1]; Example 2, 62.5 mg/ml local, 2 weeks
  mean adhesion area percentage: 72.5±9.8%
[1]; Example 2, 62.5 mg/ml local, 3 weeks
  mean adhesion area percentage: 64.3±10.9%
[1]; Example 2, 2 and 3 week local dosing, all doses
  tenacity of the adhesions formed (analysis of variance on the ranks): significant reductions in the tenacity of the adhesions
[1]; Example 2, 2 and 3 week local dosing, significant at the high dose at two weeks and at all doses at 3 weeks
  adhesion formation relative to placebo control: reductions in adhesion formation at all doses of drug and at both time points
[1]; Example 2, 0.625 mg/ml local via pump for 2 weeks (pump replaced at day 7), sacrifice after 21 days
  Adhesion Area Percentage: 50% and 100% (4×) and 80% and 0%
[1]; Example 2, 0.625 mg/ml local via pump for 2 weeks, sacrifice after 21 days
  Adhesion Tenacity: 1 (5×) and 0 and 2
[1]; Example 2, 0.625 mg/ml local via pump for 3 weeks (pump replaced at days 7 and 14), sacrifice after 21 days
  Adhesion Area Percentage: 10% and 50% (3×) and 80% and 30% and 70%
[1]; Example 2, 0.625 mg/ml local via pump for 3 weeks, sacrifice after 21 days
  Adhesion Tenacity: 1 (6×) and 2
[1]; Example 2, 6.25 mg/ml local via pump for 2 weeks (pump replaced at day 7), sacrifice after 21 days
  Adhesion Area Percentage: 100% (4×) and 70% and 0% and 80% (2×)
[1]; Example 2, 6.25 mg/ml local via pump for 2 weeks, sacrifice after 21 days
  Adhesion Tenacity: 1 (6×) and 0 and 2
[1]; Example 2, 6.25 mg/ml local via pump for 3 weeks (pump replaced at days 7 and 14), sacrifice after 21 days
  Adhesion Area Percentage: 70% and 100% (4×) and 20% and 50%
[1]; Example 2, 6.25 mg/ml local via pump for 3 weeks, sacrifice after 21 days
  Adhesion Tenacity: 1 (5×) and 2 (2×)
[1]; Example 2, 62.5 mg/ml local via pump for 2 weeks (pump replaced at day 7), sacrifice after 21 days
  Adhesion Area Percentage: 40% and 80% and 100% (3×) and 30% and 60% and 70%
[1]; Example 2, 62.5 mg/ml local via pump for 2 weeks, sacrifice after 21 days
  Adhesion Tenacity: 1 (6×) and 2 (2×)
[1]; Example 2, 62.5 mg/ml local via pump for 3 weeks (pump replaced at days 7 and 14), sacrifice after 21 days
  Adhesion Area Percentage: 50% (2×) and 40% and 30% and 100% (2×) and 80%
[1]; Example 2, 62.5 mg/ml local via pump for 3 weeks, sacrifice after 21 days
  Adhesion Tenacity: 1 (6×) and 2
[1]; Example 3, 6.25 mg/ml local only, p=0.039
  mean adhesion area percentage: 72.9±11.7%
[1]; Example 3, all groups of animals that received the drug
  tenacity of the adhesions formed (analysis of variance on the ranks): significant reductions in the tenacity of the adhesions
[1]; Example 3, all groups that received local delivery (Tables 13 and 16)
  area of adhesion formation: reductions in the area of adhesion formation
[1]; Example 3, 6.25 mg/ml local via pump over 7 days, no oral dosing
  Adhesion Tenacity: 1
[1]; Example 3, 6.25 mg/ml local via pump, 10 microliter/hour over 7 days, no oral dosing
  Adhesion Area Percentage: 100% (2×) and 60% and 80% (3×) and 10%
[1]; [7]
  Adhesion Area Percentage: 80% (2×) and 0% and 50% and 60% and 10%
  Adhesion Tenacity: 1 (5×) and 0
[1]; Example 3, oral 60 mg/kg 5 days pre-operatively and placebo topically (pump)
  Adhesion Area Percentage: 100%
[1]; Example 3, oral 60 mg/kg 5 days pre-operatively and placebo topically (pump), 60 mg/kg
  Adhesion Tenacity: 2 (4×) and 1 (2×)
[1]; [8]
  Adhesion Area Percentage: 100%
  Adhesion Tenacity: 2
[1]; Example 3, oral dosing alone, pre-operatively or pre- and post-operatively (Tables 14 and 15)
  area of adhesion formation / inhibition of adhesion formation: did not reduce the area of adhesion formation; also recorded: no inhibition of adhesion formation
[1]; Example 3, oral pre-operative and post-operative, no local
  mean adhesion area percentage: 100±0%
[1]; Example 3, oral pre-operative with topical 6.25 mg/ml, p=0.002
  mean adhesion area percentage: 46.7±14.1%
[1]; Example 3, oral pre-operative with topical placebo
  mean adhesion area percentage: 100±0%
[1]; Example 3, pre-operative oral administration in conjunction with local administration
  inhibition of adhesion formation: did result in inhibition of adhesion formation
[1]; delivered to the site via a local administrative route
  efficacy in reducing post-operative adhesions: efficacious
[1]; delivered via a systemic route
  efficacy in reducing post-operative adhesions: no efficacy was seen
[2]; Example 1, 1 week local dosing
  clinical signs at necropsy: no clinical signs
  inflammation or granulomas at the site of administration: no inflammation or granulomas were observed
[2]; [9]
  clinical signs at necropsy: no clinical signs
  inflammation or granulomas at the site of administration: no inflammation or granulomas were observed grossly at the site of administration in the majority of animals
[2]; Example 2, 0.625 mg/ml local for 2 weeks
  mild inflammation with granulomas (mark at adhesion tenacity): *
[2]; Example 2, 6.25 mg/ml local for 2 weeks
  mild inflammation with granulomas (mark at adhesion tenacity): *
[2]; Example 2, 6.25 mg/ml local for 3 weeks
  mild inflammation with granulomas (mark at adhesion tenacity): *
[2]; Example 2, 62.5 mg/ml local for 2 weeks
  mild inflammation with granulomas (mark at adhesion tenacity): *
[2]; Example 2, 62.5 mg/ml local for 3 weeks
  mild inflammation with granulomas (mark at adhesion tenacity): *
[2]; [10]
  clinical signs at necropsy: no clinical signs
  inflammation or granulomas at the site of administration: no inflammation or granulomas were observed
[3]
  IC50 values in cellular assays: does not exhibit potent IC50 values
